Source: PMC10499603, “Polθ is phosphorylated by PLK1 to repair double-strand breaks in mitosis” (Nature, 2023)

Key:
Type in all cases: cell-based, human
[1] = tested on: Polθ foci in G2, wild-type cells; test: Polθ foci in G2; details: aphidicolin 0.4 to 1.6 μM
Protocol: Cells grown on coverslips were fixed for 15 min in 2% paraformaldehyde, permeabilized for 10 min in 0.5% Triton X-100, blocked for 30 min in BSA 5%, 0.1% Triton X-100, immunostained for 1 h with primary antibodies, 45 min with secondary antibodies (Highly Cross-Adsorbed Secondary Antibodies Alexa Fluor, ThermoFisher Scientific) and mounted Vectashield mounting medium containing DAPI (Vector Laboratories). The same protocol was applied to mitotic cells, which were collected by shake off and centrifuged onto glass slides using a cytospin centrifuge (400g, 5 min) before fixation. […] Biotin azide-EdU click-it reaction was performed after fixation and permeabilization by incubating cells with a mix of Picolyl biotin, CuSO4, THPTA (Jena Bioscience) and sodium ascorbate in PBS for 30 min in the dark followed by an incubation with streptavidin conjugated Alex fluor 647 antibody (ThermoFisher Scientific) during 1 h at room temperature. Images were taken at 60× or 100× magnification using Upright Spinning disk Confocal Microscope (Roper/Zeiss) or at 40× magnification using DeltaVision (Deconvolution) Image Restoration Microscope. All images were taken with a Z-stack of 0.4 μM on 8 μM range around focus and projected using maximum intensity projection. Images were analysed using the Fiji software. […] Images were mounted in SoftWoRx and analysed using the Fiji software (1.53c). […]

[2] = tested on: RPE-1 cells expressing GFP–Polθ; test: siRNA screen, cell count
Source text: (§1) The Human DDR siRNA library comprising 1,746 single siRNAs representing 582 human genes (3 siRNAs per gene) was obtained from ThermoFisher Scientific (A30089). For controls, siRNAs targeting GL2, kinesin family member 11 (KIF11) and GM130 were used to assess transfection efficacy and induced cell toxicity. FANCD2 siRNA ([…]dT, defined as FANCD2-ctrl in Supplementary Table 1) was used as a positive control inhibiting Polθ foci formation. RPE-1 cells expressing GFP–Polθ (250 cells per well in 384-well plates) were grown overnight. siRNAs were incubated 15 min with 0.05 μl Interferin reagent (Polyplus transfection) and Opti-MEM (ThermoFisher Scientific) prior to being transferred into each 384-well plate wells, to obtain a 10 nM final concentration. Cells were irradiated 72 h after transfection, at a dose of 5 Gy (226 s) with the CIXD irradiator (RadeXp platform, Institut Curie) and incubated at 37 °C, 5% CO2 for 2 h. […] Polθ was then identified as organelles in the nuclei area and quantified by the average intensity of pixels within the defined organelles region. […] Corrected values were normalized as follows: sample median and median absolute deviation (MAD) were calculated from the Interferin-treated population of each internal plate data points (named as Ref pop) and used to compute robust Z-scores[59] […]

[3] = tested on: Polθ foci formation in RPE-1 cells expressing GFP–Polθ; test: siRNA screen for ionizing radiation-induced Polθ foci formation; details: 10 nM siRNA, 72 h, then 5 Gy, 2 h; cells with at least 5 Polθ foci; median RZ score of the three siRNAs, three replicate experiments
Source text: as §1

Compound | Polθ foci in G2 [1] | Toxicity threshold [2] | Robust z score_corrected_Cells multi-foci_MultiFoci (%) [3]
C[C@@]1(CO)[C@H](O)CC[C@@]2(C)[C@H]1CC[C@H]1C[C@@H]3C[C@@]12CC[C@]3(O)CO [aphidicolin, Aphidicolin] | Polθ foci in G2 could be induced by replication stress (aphidicolin treatment) in wild-type cells, to the level of that in BRCA2^−/− cells |  | 
GGAGAUUGAUGGUCUACUATdT (GGAGAUUGAUGGUCUACUATT; chemistry not given here) [fancd2-ctrl] |  | Toxic | -7.14
